Where a name gives a salt, the structure may show the parent alone.
Test: Storage of the sample in an open Petri dish at room conditions, reanalysed on HPLC
Type: physicochemical
Details: room conditions (20-25° C., relative humidity 20-30%), 1 month, HPLC purity before storage 99.94%
Experimental: The sample was left in an open Petri dish at room conditions (20-25° C., relative humidity 20-30%) for 1 month and then reanalyzed on HPLC giving purity of 99.84%.

## CC(=O)Oc1cc2c(s1)CCN(C(C(=O)C1CC1)c1ccccc1F)C2 (stereo not shown) [form II of prasugrel hydrobromide, Prasugrel hydrobromide]
  HPLC purity after storage: 99.84%

Reference: patent US9012641B2, “Crystalline forms of Prasugrel salts” (Teva Pharmaceuticals Industries Ltd., priority 2010, dated 2015)
